# Data as given in patent US6384055B1, “Utilization of derivatives of tetrahydropyridines (or 4-hydroxypiperidines)-butylazols in the preparation of a medicament for the treatment of pain” (Laboratorios Del Dr. Esteves, S.A., priority 1998, dated 2002).
# Tests used:
# Swiss albino mice [1] = test: assay of contortions induced by phenylbenzoquinone; format: in vivo; conditions: for ED50: Mus musculus
# Swiss albino mice [2] = test: hot-plate assay; format: in vivo; conditions: Mus musculus, 0.5 h, sc, hot-plate 55° C., 30 minutes after administration, read-out: ED-50 hot-plate assay (55° C.)
# Experimental: The product under study was administered s.c. or i.p. and 30 minutes later the analgesic effect was registered. For this the animals were placed on a metallic surface kept at 50° C. or 55° C. and the time registered (latency) until the licked their hind legs and a jump. The analgesic activity was calculated at each dose, comparing the potency of the treated group with the control group. Using the results obtained the ED-50 was calculated.
# [3] = mice, oral route, dose inhibiting by 50% the contortions induced by phenylbenzoquinone i.p. 60 minutes after product
# [4] = mice, s.c. route, dose inhibiting by 50% the contortions induced by phenylbenzoquinone i.p. 30 minutes after product
smiles,measurement,setting,value
"CC(=O)Oc1ccccc1C(=O)O [Aspirin, aspirin]",ED50,"Swiss albino mice [1]; 0.5 h, mice, s.c. route, dose inhibiting by 50% the contortions induced by phenylbenzoquinone i.p. 30 minutes after product, read-out: ED-50 S.C. route",80 mg/kg
same,ED50,"Swiss albino mice [1]; 1 h, mice, oral route, dose inhibiting by 50% the contortions induced by phenylbenzoquinone i.p. 60 minutes after product, read-out: ED-50 Oral route",100 mg/kg
"Cc1c(N(C)CS(=O)(=O)[O-])c(=O)n(-c2ccccc2)n1C.[Na+] [Dipirone, dipirone]",ED-50 Oral route,Swiss albino mice [1]; [3],223 mg/kg
same,ED-50 S.C. route,Swiss albino mice [1]; [4],24 mg/kg
OC1(c2ccc(Cl)cc2)CCN(CCCCn2cc(Cl)cn2)CC1 [Example 5],ED-50 Oral route,Swiss albino mice [1]; [3],20 mg/kg
same,ED-50 S.C. route,Swiss albino mice [1]; [4],28 mg/kg
"CN1CC[C@]23c4c5ccc(O)c4O[C@H]2[C@@H](O)C=C[C@H]3[C@H]1C5 [Morfine, morphine]",ED50,"Swiss albino mice [1]; 0.5 h, read-out: ED-50 S.C. route",1 mg/kg
same,ED50,"Swiss albino mice [1]; 1 h, read-out: ED-50 Oral route",4 mg/kg
same,ED50,Swiss albino mice [2],2 mg/kg
